Columns and labels:
[1] = system: Mycobacterium tuberculosis Erdman (autoluminescent); assay: total FIC50 (Loewe) at 50% inhibition, three-drug combination (log2); higher = more antagonistic
Protocol: (§1)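 DiaMOND equipotent three-drug combination dose responses (10 doses, 1.5- or 2-fold spacing, centred on IC90) against autoluminescent M. tuberculosis Erdman in 8 in vitro models. Read-out is OD600, or luminescence for the intracellular and dormancy models, normalised to untreated wells. Hill-fit Einf, AUC25 and GRinf are potency metrics; FIC50 and FIC90 are total Loewe fractional inhibitory concentrations as log2 (negative = synergy).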

[2] = system: Mycobacterium tuberculosis Erdman (autoluminescent); assay: total FIC90 (Loewe) at 90% inhibition, three-drug combination (log2); higher = more antagonistic
Protocol: as §1

[3] = system: Mycobacterium tuberculosis Erdman (autoluminescent); assay: Einf, fitted maximum growth inhibition of three-drug combination (fraction); higher = stronger maximal inhibition
Protocol: as §1

[4] = system: Mycobacterium tuberculosis Erdman (autoluminescent); assay: AUC25, normalised area under dose response up to IC25 (three-drug combination) (fraction (0-1)); higher = more potent at low dose
Protocol: as §1

[5] = system: Mycobacterium tuberculosis Erdman (autoluminescent); assay: GRinf, maximum normalised growth rate inhibition (three-drug combination) (unitless (-1 to 1)); higher = less effect (negative = killing)
Protocol: as §1

NNC(=O)c1ccncc1 [isoniazid] + NC(=O)c1cnccn1 [pyrazinamide] + CO[C@H]1/C=C/O[C@@]2(C)Oc3c(C)c(O)c4c(O)c(c(/C=N/N5CCN(C6CCCC6)CC5)c(O)c4c3C2=O)NC(=O)/C(C)=C\C=C\[C@H](C)[C@H](O)[C@@H](C)[C@@H](O)[C@@H](C)[C@H](OC(C)=O)[C@@H]1C [rifapentine]
Details	AUC25, [4]	Einf, [3]	GRinf, [5]	total FIC50, [1]	total FIC90, [2]
in vitro model: acidic pH 5.7, time point: constant (~7 days, model-specific)	0.096	0.925	-0.35	-3.55	–
in vitro model: acidic pH 5.7, time point: terminal (~4-5 doublings, model-specific)	0.0425	0.985	-0.234	-2.67	-3.81
in vitro model: intracellular J774, time point: constant = terminal	–	0.987	-0.309	–	0.243

Details	AUC25, [4]	Einf, [3]	GRinf, [5]	total FIC50, [1]	total FIC90, [2]
in vitro model: butyrate, time point: constant (~7 days, model-specific)	0.0899	0.924	-0.00381	-1.95	0.6
in vitro model: butyrate, time point: terminal (~4-5 doublings, model-specific)	0.0698	0.969	0.0193	-1.85	-1.91
in vitro model: cholesterol 0.05 mM, time point: constant (~7 days, model-specific)	0.108	0.706	-0.183	–	–
in vitro model: cholesterol 0.05 mM, time point: terminal (~4-5 doublings, model-specific)	0.0828	0.893	-0.166	-0.19	–
in vitro model: cholesterol-high 0.2 mM, time point: constant (~7 days, model-specific)	0.0744	0.905	-0.222	0.738	–
in vitro model: cholesterol-high 0.2 mM, time point: terminal (~4-5 doublings, model-specific)	0.0802	0.997	-0.658	1.17	1.11
in vitro model: dormancy (butyrate + nitrate, low O2), time point: constant (~7 days, model-specific)	0.0611	0.883	0.232	-2.31	-2.4
in vitro model: dormancy (butyrate + nitrate, low O2), time point: terminal (~4-5 doublings, model-specific)	0.0351	0.973	-0.0606	-2.22	-2.43
in vitro model: standard 7H9 glycerol, time point: constant = terminal	0.066	0.915	0.0607	-5.95	–
in vitro model: valerate, time point: constant (~7 days, model-specific)	0.118	0.878	-0.183	-1.89	–
in vitro model: valerate, time point: terminal (~4-5 doublings, model-specific)	0.0446	0.949	-0.0194	-1.1	-0.889

NNC(=O)c1ccncc1 [isoniazid] + NC(=O)c1cnccn1 [pyrazinamide] + CO[C@H]1/C=C/O[C@@]2(C)Oc3c(C)c(O)c4c(O)c(c(/C=N/N5CCN(C)CC5)c(O)c4c3C2=O)NC(=O)/C(C)=C\C=C\[C@H](C)[C@H](O)[C@@H](C)[C@@H](O)[C@@H](C)[C@H](OC(C)=O)[C@@H]1C [rifampicin]
Details	AUC25, [4]	Einf, [3]	GRinf, [5]	total FIC50, [1]	total FIC90, [2]
in vitro model: acidic pH 5.7, time point: constant (~7 days, model-specific)	0.0814	0.864	-0.12	-1.79	–
in vitro model: acidic pH 5.7, time point: terminal (~4-5 doublings, model-specific)	0.0574	0.988	-0.193	-1.2	-1.75
in vitro model: intracellular J774, time point: constant = terminal	–	0.976	-0.255	–	0.327

Details	AUC25, [4]	Einf, [3]	GRinf, [5]	total FIC50, [1]	total FIC90, [2]
in vitro model: butyrate, time point: constant (~7 days, model-specific)	0.103	0.921	0.00703	-2.04	0.665
in vitro model: butyrate, time point: terminal (~4-5 doublings, model-specific)	0.0827	0.967	0.0033	-2.09	-2.12
in vitro model: cholesterol 0.05 mM, time point: constant (~7 days, model-specific)	0.088	0.633	-0.0371	–	–
in vitro model: cholesterol 0.05 mM, time point: terminal (~4-5 doublings, model-specific)	0.0858	0.865	-0.1	0.166	–
in vitro model: cholesterol-high 0.2 mM, time point: constant (~7 days, model-specific)	0.0657	0.91	-0.258	0.702	–
in vitro model: cholesterol-high 0.2 mM, time point: terminal (~4-5 doublings, model-specific)	0.0664	1	-0.795	1.16	0.74
in vitro model: dormancy (butyrate + nitrate, low O2), time point: constant (~7 days, model-specific)	0.0642	0.891	0.224	-2.66	-3.39
in vitro model: dormancy (butyrate + nitrate, low O2), time point: terminal (~4-5 doublings, model-specific)	0.0565	0.979	-0.0973	-3.09	-2.85
in vitro model: standard 7H9 glycerol, time point: constant = terminal	0.0763	0.917	0.0491	-5.81	–
in vitro model: valerate, time point: constant (~7 days, model-specific)	0.0587	0.86	0.0565	-2.11	–
in vitro model: valerate, time point: terminal (~4-5 doublings, model-specific)	0.0331	0.928	0.0571	-1.04	-1.36

NNC(=O)c1ccncc1 [isoniazid] + O=[N+]([O-])c1cn2c(n1)OC[C@@H](OCc1ccc(OC(F)(F)F)cc1)C2 [pretomanid] + CO[C@H]1/C=C/O[C@@]2(C)Oc3c(C)c(O)c4c(O)c(c(/C=N/N5CCN(C6CCCC6)CC5)c(O)c4c3C2=O)NC(=O)/C(C)=C\C=C\[C@H](C)[C@H](O)[C@@H](C)[C@@H](O)[C@@H](C)[C@H](OC(C)=O)[C@@H]1C [rifapentine]
Details	AUC25, [4]	Einf, [3]	GRinf, [5]	total FIC50, [1]	total FIC90, [2]
in vitro model: acidic pH 5.7, time point: constant (~7 days, model-specific)	0.0727	0.917	-0.193	4.53	–
in vitro model: acidic pH 5.7, time point: terminal (~4-5 doublings, model-specific)	0.0598	0.992	-0.24	4.23	4.33
in vitro model: intracellular J774, time point: constant = terminal	–	0.999	-0.647	–	0.264

Details	AUC25, [4]	Einf, [3]	GRinf, [5]	total FIC50, [1]	total FIC90, [2]
in vitro model: butyrate, time point: constant (~7 days, model-specific)	0.0925	0.927	-0.00998	2.86	1.02
in vitro model: butyrate, time point: terminal (~4-5 doublings, model-specific)	0.0727	0.966	0.00856	2.77	2.95
in vitro model: cholesterol 0.05 mM, time point: constant (~7 days, model-specific)	0.0995	0.687	-0.151	1.97	–
in vitro model: cholesterol 0.05 mM, time point: terminal (~4-5 doublings, model-specific)	0.0863	0.914	-0.223	2.05	0.57
in vitro model: cholesterol-high 0.2 mM, time point: constant (~7 days, model-specific)	0.0548	0.808	-0.0225	0.663	–
in vitro model: cholesterol-high 0.2 mM, time point: terminal (~4-5 doublings, model-specific)	0.0663	0.994	-0.46	0.773	0.83
in vitro model: dormancy (butyrate + nitrate, low O2), time point: constant (~7 days, model-specific)	0.0593	0.871	0.27	2.68	2.64
in vitro model: dormancy (butyrate + nitrate, low O2), time point: terminal (~4-5 doublings, model-specific)	0.0428	0.978	-0.11	2.7	2.66
in vitro model: standard 7H9 glycerol, time point: constant = terminal	0.0426	0.884	0.179	4.92	–
in vitro model: valerate, time point: constant (~7 days, model-specific)	0.102	0.894	-0.014	2.74	–
in vitro model: valerate, time point: terminal (~4-5 doublings, model-specific)	0.0549	0.938	-0.167	3.29	2.95

From the supplement of paper PMC8617591
